Reference: PubChem BioAssay AID330 (DTP/NCI, 2004)
“And” between values parts separate entries of the source, which are not always exact repeats. Equal values may be shown once. Inconclusive results and toxic doses are left out. Rule for the calls: active = survival T/C of 150% or more; inactive = T/C below 125% in these data.

System: P388 leukemia ip, CD2F1 mice, survival T/C
Experiment: NCI In Vivo Anticancer Drug Screen. Data for tumor model P388 Leukemia (intraperitoneal) in CD2F1 (CDF1) mice
Conditions: endpoint: median survival time, higher = longer survival
How it was run: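 Mice carrying the transplanted tumor received test compound or vehicle. Survival was recorded in each group, and the value is the treated-group measurement divided by that of the vehicle-treated control group.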

[1] = dose: 60.0 mg/kg/injection, schedule: Q01DX005 (ip), vehicle: saline with Tween-80
[2] = dose: 120.0 mg/kg/injection, schedule: Q01DX005 (ip), vehicle: saline with Tween-80
[3] = dose: 12.5 mg/kg/injection, schedule: Q01DX009 (ip), vehicle: saline with Tween-80
[4] = dose: 25.0 mg/kg/injection, schedule: Q01DX009 (ip), vehicle: saline with Tween-80
[5] = dose: 50.0 mg/kg/injection, schedule: Q01DX009 (ip), vehicle: saline with Tween-80
[6] = dose: 12.5 mg/kg/injection, schedule: Q01DX009 (ip), vehicle: saline
[7] = dose: 25.0 mg/kg/injection, schedule: Q01DX009 (ip), vehicle: saline

Measured: T/C

NC(=S)N/N=C\c1nc2ccccc2c2ccccc12
inactive: dose: 50.0 mg/kg/injection, schedule: Q04DX002 (ip), vehicle: Klucel (hydroxypropylcellulose) (HPC) 99 % of control | dose: 100.0 mg/kg/injection, schedule: Q04DX002 (ip), vehicle: Klucel (hydroxypropylcellulose) (HPC) 95 % of control | dose: 200.0 mg/kg/injection, schedule: Q04DX002 (ip), vehicle: Klucel (hydroxypropylcellulose) (HPC) 94 % of control

C[C](C)(C)[Ge]([O][Ge]([c]1ccccc1)[c]1ccccc1)([O][Ge]([c]1ccccc1)[c]1ccccc1)[C](C)(C)C
inactive: dose: 15.0 mg/kg/injection, schedule: Q01DX005 (ip), vehicle: saline with Tween-80 103 % of control | dose: 30.0 mg/kg/injection, schedule: Q01DX005 (ip), vehicle: saline with Tween-80 103 % of control | [1] 110 % of control and 117 % of control | [2] 117 % of control

O=C(Cn1cnc2c(=S)nc[nH]c21)Oc1ccc([N+](=O)[O-])cc1
inactive: [3] 109 % of control | [4] 100 % of control | dose: 25.0 mg/kg/injection, schedule: Q04DX003 (ip), vehicle: saline with Tween-80 91 % of control | [5] 100 % of control | dose: 50.0 mg/kg/injection, schedule: Q04DX003 (ip), vehicle: saline with Tween-80 91 % of control

Cc1ccc2c(c1)sc1nncn12
inactive: dose: 50.0 mg/kg/injection, schedule: Q01DX009 (ip), vehicle: Klucel (hydroxypropylcellulose) (HPC) 94 % of control | dose: 100.0 mg/kg/injection, schedule: Q01DX009 (ip), vehicle: Klucel (hydroxypropylcellulose) (HPC) 105 % of control

CC(CN=Cc1ccccc1O)N=Cc1ccccc1O.[Zn] (configuration not stated)
inactive: dose: 6.25 mg/kg/injection, schedule: Q01DX009 (ip), vehicle: saline with Tween-80 103 % of control | [3] 111 % of control | [4] 93 % of control and 97 % of control | [5] 99 % of control

COc1ccc(/C=C/C(=O)c2ccccc(=O)c2O)cc1
inactive: dose: 50.0 mg/kg/injection, schedule: Q01DX001 (ip), vehicle: Klucel (hydroxypropylcellulose) (HPC) 106 % of control | dose: 100.0 mg/kg/injection, schedule: Q01DX001 (ip), vehicle: Klucel (hydroxypropylcellulose) (HPC) 101 % of control | dose: 200.0 mg/kg/injection, schedule: Q01DX001 (ip), vehicle: Klucel (hydroxypropylcellulose) (HPC) 105 % of control | dose: 400.0 mg/kg/injection, schedule: Q01DX001 (ip), vehicle: Klucel (hydroxypropylcellulose) (HPC) 92 % of control

Brc1cnc2nc(Cc3ccccc3)[nH]c2c1
inactive: dose: 100.0 mg/kg/injection, schedule: Q01DX001 (ip), vehicle: saline with Tween-80 97 % of control | dose: 200.0 mg/kg/injection, schedule: Q01DX001 (ip), vehicle: saline with Tween-80 113 % of control | dose: 400.0 mg/kg/injection, schedule: Q01DX001 (ip), vehicle: saline with Tween-80 97 % of control

CC(C)(C)c1cc(C(c2ccccc2)(c2ccccc2)c2ccccc2)cc2c1OP(F)(c1ccccc1)(c1ccccc1)N2
inactive: [5] 91 % of control | dose: 100.0 mg/kg/injection, schedule: Q01DX009 (ip), vehicle: saline with Tween-80 95 % of control | dose: 200.0 mg/kg/injection, schedule: Q01DX009 (ip), vehicle: saline with Tween-80 91 % of control

COC1NC(=S)N(C(C)(C)C)C1(C)C (configuration not stated)
inactive: [6] 99 % of control | [7] 100 % of control | dose: 50.0 mg/kg/injection, schedule: Q01DX009 (ip), vehicle: saline 107 % of control | dose: 50.0 mg/kg/injection, schedule: Q01DX009 (ip), vehicle: suspension in saline 97 % of control

COC1=CC(=O)OC(/C=C/c2ccccc2)(OC)C1=O (configuration not stated)
inactive: [1] 102 % of control | [2] 110 % of control | dose: 240.0 mg/kg/injection, schedule: Q01DX005 (ip), vehicle: saline with Tween-80 101 % of control

Cc1cc([N+](=O)[O-])cc(Cl)n1
inactive: dose: 3.12 mg/kg/injection, schedule: Q01DX009 (ip), vehicle: Klucel (hydroxypropylcellulose) (HPC) 106 % of control | dose: 6.25 mg/kg/injection, schedule: Q01DX009 (ip), vehicle: Klucel (hydroxypropylcellulose) (HPC) 99 % of control | dose: 12.5 mg/kg/injection, schedule: Q01DX009 (ip), vehicle: Klucel (hydroxypropylcellulose) (HPC) 100 % of control | dose: 25.0 mg/kg/injection, schedule: Q01DX009 (ip), vehicle: Klucel (hydroxypropylcellulose) (HPC) 106 % of control

O=c1cccccc1O
inactive: [6] 105 % of control and 107 % of control | [7] 100 % of control

O=c1[nH]cnc2cc(N3CCCCC3)c([N+](=O)[O-])cc12
inactive: dose: 100.0 mg/kg/injection, schedule: Q04DX003 (ip), vehicle: saline with Tween-80 102 % of control | dose: 200.0 mg/kg/injection, schedule: Q04DX003 (ip), vehicle: saline with Tween-80 94 % of control | dose: 400.0 mg/kg/injection, schedule: Q04DX003 (ip), vehicle: saline with Tween-80 94 % of control

COC(=O)C(C(=O)OC)=C1C(=O)OCC1(C)C
inactive: dose: 100.0 mg/kg/injection, schedule: Q04DX003 (ip), vehicle: saline 101 % of control | dose: 200.0 mg/kg/injection, schedule: Q04DX003 (ip), vehicle: saline 100 % of control | dose: 400.0 mg/kg/injection, schedule: Q04DX003 (ip), vehicle: saline 100 % of control
